“Also recorded” adds a separate entry of the source. Where two headings read alike, the source gives them in different places.
Legend:
[1] = system: dogs; conditions: cited from earlier work
[2] = system: healthy dogs; experiment: Adverse effects observed after administration; conditions: SC 0.4 mg/kg
[3] = system: dogs undergoing soft tissue surgery; conditions: 0.4 mg/kg IV, ref Gomes et. al., 2020; cited from earlier work
[4] = Pharmacokinetics of butorphanol in plasma; conditions: for AUC(0-inf): AUCinf
[5] = system: healthy dogs; experiment: Rectal temperature change from baseline; assay type: in vivo, dogs (Beagles); conditions: SC 0.4 mg/kg, n=6, P<0.05
[6] = system: dogs; conditions: SC, ref Pircio et al., 1976; cited from earlier work
[7] = after SC and IM administration at 0.25 mg/kg, dogs; ref Pfeffer et al., 1980; cited from earlier work
[8] = system: dogs; conditions: cited from earlier work; remark: listed apart in the source
[9] = both, Beagle, dog, in vivo, iv, 0.4 mg/kg, IV bolus 0.4 mg/kg IV, geometric mean, n=6
[10] = both, Beagle, dog, in vivo, sc, 0.4 mg/kg
[11] = both, Beagle, dog, in vivo, sc, 0.4 mg/kg, SC 0.4 mg/kg, geometric mean, n=6
[12] = 0.4 mg/kg IV, ref Wegner et al., 2008

For `Oc1ccc2c(c1)[C@@]13CCCC[C@@]1(O)[C@@H](C2)N(CC1CCC1)CC3` [butorphanol], the “antinociception, colonic distension model” value ([1]; 0.4 mg/kg IV, 30 minutes (latest time point assessed), ref Houghton, et. al., 1991) is given as “significant effects; also recorded: significant antinociception”, the “antinociception, colonic distension model” value ([1]; 0.8 mg/kg SC, 45 minutes, ref Sawyer, et. al. 1991) is given as “did produce a significant effect; also recorded: significant antinociception” and the “response, colonic distension nociceptive model” value ([1]; doses up to 0.4 mg/kg SC, 45 minutes, ref Sawyer et al., 1991) is given as “failed to produce a significant response”. The hypersalivation [2] was 2/6, the “analgesia in clinical trial” value [3] was “insufficient analgesia” and the “Css (steady state plasma concentration)” value ([4]; IV CRI: 0.2 mg/kg IV loading dose then 0.2 mg/kg/hr for 8 hours, geometric mean, n=5) was 43.1 ng/mL. The AUC extrapolated ([4]; IV bolus 0.4 mg/kg IV, geometric mean, n=6) was 1.0%, the AUC extrapolated ([4]; SC 0.4 mg/kg, geometric mean, n=6) was 2.5% and the half-life ([4]; both, Beagle, dog, in vivo, half-life, dogs, overall statement of abstract) was ~1.5 h. The concentration at 5 min ([4]; both, Beagle, dog, in vivo, iv, 0.4 mg/kg) was 144 ng/mL, the AUC(0-inf) [4, 9] was 143 ng·h/mL and the C0 ([4]; both, Beagle, dog, in vivo, iv, 0.4 mg/kg, C0, IV bolus 0.4 mg/kg IV, geometric mean, n=6) was 183 ng/mL. It also gave a clearance ([4]; both, Beagle, dog, in vivo, iv, 0.4 mg/kg, Cl, IV bolus 0.4 mg/kg IV, geometric mean, n=6) of 46.5 mL/min/kg, an MRT [4, 9] of 1.26 h and a half-life ([4]; both, Beagle, dog, in vivo, iv, 0.4 mg/kg, T ½ λz, IV bolus 0.4 mg/kg IV, geometric mean, n=6) of 1.47 h. It also gave a Vd ([4]; both, Beagle, dog, in vivo, iv, 0.4 mg/kg, Vss, IV bolus 0.4 mg/kg IV, geometric mean, n=6) of 3.51 L/kg, a Vd ([4]; both, Beagle, dog, in vivo, iv, 0.4 mg/kg, Vz, IV bolus 0.4 mg/kg IV, geometric mean, n=6) of 5.91 L/kg and a k el ([4]; both, Beagle, dog, in vivo, iv, 0.4 mg/kg, λz, IV bolus 0.4 mg/kg IV, geometric mean, n=6) of 0.000131 s⁻¹. The half-life ([4]; both, Beagle, dog, in vivo, iv, T ½ λz, IV CRI: 0.2 mg/kg IV loading dose then 0.2 mg/kg/hr for 8 hours, geometric mean, n=5) was 1.42 h, the k el ([4]; both, Beagle, dog, in vivo, iv, λz, IV CRI: 0.2 mg/kg IV loading dose then 0.2 mg/kg/hr for 8 hours, geometric mean, n=5) was 0.000136 s⁻¹ and the Cmax [4, 10] was 74.2 ng/mL. The TMAX [4, 10] was 0.21 h, the AUC(0-inf) [4, 11] was 123 ng·h/mL and the MRT [4, 11] was 2.09 h. For the same molecule, the half-life ([4]; both, Beagle, dog, in vivo, sc, 0.4 mg/kg, T ½ λz, SC 0.4 mg/kg, geometric mean, n=6) was 1.83 h, the k el ([4]; both, Beagle, dog, in vivo, sc, 0.4 mg/kg, Λz, SC 0.4 mg/kg, geometric mean, n=6) was 0.000105 s⁻¹ and the “statistically significant decrease in rectal temperature compared to baseline” value [5] was “did not occur”. For the same molecule, the “dose of maximum effect on miosis” value [6] was 0.25 mg/kg, the CMAX range [7] was 25 to 33 ng/mL and the terminal half-life [7] was 1.5 to 1.7 h. For the same molecule, the “thermal antinociception compared to hydromorphone at 0.1 mg/kg IV” value [8, 12] was “equianalgesic peak effects and duration”, the “time of peak effect, thermal antinociception” value [8, 12] was 1 h and the “time of peak antinociceptive effect after IV administration” value ([8]; IV, ref Wegner et al 2008) was 60 min.

— article PMC10949855 (Journal of veterinary pharmacology and therapeutics, 2022)
